The target in one series is T1, 5-HT2A receptors (Rattus norvegicus, UniProt P14842).
T1 construct: Frontal rat cortex is homogenized in ice-cold buffer; from tissue; host or cells: rat frontal cortex homogenate (membrane pellet)
As to the kind of experiment: 5-HT2A receptor binding test ([3H]ketanserin displacement). The protocol: For the in-vitro detection of the affinity for 5-HT2A receptors, it is possible to use, for example, the following test (Example A1). The 5-HT2A receptors are exposed to both [^3H]ketanserin (a substance known for its affinity for the receptor) and the test compound. The decrease in the binding of [^3H]ketanserin to the receptor is a sign of the affinity of the test substance for the 5-HT2A receptor. Detection is carried out analogously to the description of J. E. Leysen et al., Molecular Pharmacology, 1982, 21: 301-314 or as also described, for example, in EP 0320983.
Preparation of a suspension of 5-HT2A receptors: Frontal rat cortex is homogenized in ice-cold buffer. The homogenate is centrifuged for 10 minutes at 4° C. and 50,000×[sic]. The pellet is resuspended in 2.5 ml of ice-cold tris buffer, made up with 10 ml of additional buffer and centrifuged as described [lacuna]. The pellet is then resuspended in buffer and diluted to give a homogenate which contains 60 mg of material/ml. 0.1 ml of the suspension, 100 μl of a 5 nM solution of [^3H]ketanserin, 100 μl of a solution of the test compound (concentration in the range from 10^−5 to 10^−10 mol per litre) are added to the incubation tubes and made up to 1 ml with buffer. The tubes are incubated for 15 minutes at 37° C. After termination of the incubation by immersing the tubes in an ice bath, the cooled suspension is filtered through a glass filter in vacuo. The filters are washed 3× with 5 ml of cold buffer and then transferred to scintillation tubes. The filters are analysed by means of liquid scintillation spectrometry in 8 ml of Triton X scintillator fluid.
The IC50 values are indicated for the binding tests.

Series [1] deals with DOI-induced head-twitching in mice. The experiment in a line: DOI-induced head-twitching in mice (DOI antagonism). In kind it is in vivo. Particulars: male mice, test compound orally, 30 minutes later 3 mg/kg of DOI intraperitoneally, observed for 15 minutes. The text has this:
Serotonin-2(5-HT2)agonists such as 1-(2,5-dimethoxy-4-iodophenyl)-2-aminopropane (DOI) induce sterotypic behaviour patterns such as, for example, head-twitching or ear-scratching in various animals such as, for example, mice or rats (N. A. Darmani et al., Pharmacol. Biochem. Behav. 1989, 36: 901-906; N. A. Darmani et al., Pharmacol. Biochem. Behav. 1990, 37: 95-99; N. A. Darmani et al., Pharmacol. Biochem. Behav. 1994, 48: 383-396; D. L. Willins and H. Y. Meltzer, J. Pharmacol. Exp. Ther., 1997, 282: 699-706).
DOI-induced head-twitching in mice is used in order to test compounds having 5-HT2A antagonistic properties. The test compound is orally administered to male mice. 30 minutes later, 3 mg/kg of DOI is [sic] are administered intraperitoneally. The animals are observed for 15 minutes and the number of head twitches is noted. Quantification of the in vivo antagonistic effect of the test compounds ensues by comparison with the number of head twitches from those investigations in which the animals were only DOI-treated.

Setting [2] is: frontal rat cortex homogenate, 15 minutes at 37° C.

Broadly, the melting point is the temperature, or range, at which the solid turns liquid.

Counter-ions that a name gives are not always drawn. Like-named read-outs stand apart in the source and are kept apart here.

T1 sequence (P14842 whole entry): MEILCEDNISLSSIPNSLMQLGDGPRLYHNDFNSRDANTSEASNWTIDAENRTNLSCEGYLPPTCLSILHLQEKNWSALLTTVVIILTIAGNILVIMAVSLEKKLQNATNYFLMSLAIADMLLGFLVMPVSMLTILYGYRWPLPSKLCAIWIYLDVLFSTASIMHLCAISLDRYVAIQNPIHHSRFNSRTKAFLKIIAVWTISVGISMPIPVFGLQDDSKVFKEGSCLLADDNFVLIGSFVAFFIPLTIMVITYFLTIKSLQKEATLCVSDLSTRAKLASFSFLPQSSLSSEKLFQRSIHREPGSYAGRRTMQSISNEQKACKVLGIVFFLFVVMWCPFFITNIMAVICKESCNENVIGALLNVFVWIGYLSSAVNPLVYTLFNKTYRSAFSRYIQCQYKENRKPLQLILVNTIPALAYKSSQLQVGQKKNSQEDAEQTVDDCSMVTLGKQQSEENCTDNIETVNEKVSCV

In turn, `CC(O)(c1ccc(F)cc1)C1CCN(CCc2ccncc2)CC1` (racemic) [R1=4-pyridyl, R2=4-fluorophenyl, rac] yielded an IC50 on 5-HT2A receptors (setting [2]) of 220 nM.

In the case of `COc1ccc(CCN2CCC(C(C)(O)c3ccc(F)cc3)CC2)s1` (racemic), the IC50 at 5-HT2A receptors (setting [2]) was determined as 21 nM.

`CC(O)(c1ccc(F)cc1)C1CCN(CCc2ccc(F)cc2F)CC1` (single isomer, unassigned) [listing 1 of 2 here] yielded an IC50 on 5-HT2A receptors (setting [2]) of 40 nM.

`CC(O)(c1ccc(F)cc1)C1CCN(CCc2ccc(Br)s2)CC1` (racemic) displayed an IC50 at 5-HT2A receptors (setting [2]) of 3.9 nM.

`CC(O)(c1ccccc1)C1CCN(CCc2ccc(F)cc2)CC1.I` (racemic) [R1=4-fluorophenyl, R2=phenyl, HI, rac, 1-{1-[2-(4-fluorophenyl)ethyl]piperidin-4-yl}-1-phenylethanol, hydroiodide] returned a melting point of 205 to 207 °C. Also, the IC50 on 5-HT2A receptors (setting [2]) was 0.68 nM.

The compound `CC(O)(c1ccccc1)C1CCN(CCc2ccc(Cl)s2)CC1.I` (racemic) [1-{1-[2-(5-chlorothiophen-2-yl)ethyl]piperidin-4-yl}-1-phenylethanol, hydroiodide] displayed a melting point of 177 to 178 °C. Besides, the IC50 on 5-HT2A receptors (setting [2]) was 0.83 nM.

On 5-HT2A receptors (setting [2]), `CC(O)(c1ccc(F)cc1)C1CCN(CCc2ccc(C#N)cc2)CC1` (racemic) registered an IC50 of 27 nM.

`CC(O)(c1ccc(F)cc1)C1CCN(CCc2ccc(Cl)s2)CC1.Cl` (single isomer, unassigned; (+)) [(+)-1-{1-[2-(5-chlorothiophen-2-yl)ethyl]piperidin-4-yl}-1-(4-fluorophenyl)ethanol, hydrochloride] showed a melting point of 210 to 211 °C. In addition, the IC50 at 5-HT2A receptors (setting [2]) was 1.1 nM. In addition, in series [1], the “Inhibition [%], suppression of behaviour elicited (head-twitching in mice), DOI antagonism” value (“Inhibition [%], suppression” below) was 21%.

Consider `CC(O)(c1ccc(F)cc1)C1CCN(CCc2ccc(F)cc2F)CC1` (single isomer, unassigned) [listing 2 of 2 here], for which, on 5-HT2A receptors (setting [2]), the IC50 came to 2.9 nM.

Consider `CC(O)(c1ccc(F)cc1)C1CCN(CCc2ccsc2)CC1` (single isomer, unassigned) [listing 1 of 2 here], for which the IC50 at 5-HT2A receptors (setting [2]) amounted to 3.3 nM.

With `CC(O)(c1ccc(Cl)s1)C1CCN(CCc2ccc(F)cc2)CC1` (racemic) [1-{1-[2-(4-fluorophenyl)ethyl]piperidin-4-yl}-1-(5-chlorothiophen-2-yl)ethanol], the melting point lay in the range of 159 to 160 °C. This compound returned an IC50 on 5-HT2A receptors (setting [2]) of 0.75 nM. Besides, the “Inhibition [%], suppression” value in series [1] was 26%.

For the compound `CC(O)(c1ccc(F)cc1)C1CCN(CCc2ccc(C(F)(F)F)cc2)CC1` (racemic), the IC50 on 5-HT2A receptors (setting [2]) worked out at 32 nM.

`CC(O)(c1ccc(F)cc1F)C1CCN(CCc2ccc(F)cc2)CC1` (single isomer, unassigned) [listing 1 of 2 here] registered an IC50 at 5-HT2A receptors (setting [2]) of 0.72 nM.

With “1-{1-[2-(2,3-dimethoxy-phenyl)ethyl]piperidin-4-yl}-1-(4-fluorophenyl)ethanol, hydroiodide”, the IC50 at 5-HT2A receptors (read-out: IC50 values (concentrations in mol/l at which 50% of the radioactive ligands are displaced from the binding sites), frontal rat cortex homogenate, 15 minutes at 37° C.) is 11 nM.

On 5-HT2A receptors (setting [2]), `CC(O)(c1ccc(F)cc1F)C1CCN(CCc2ccc(Cl)s2)CC1` (racemic) had an IC50 of 5.5 nM.

At 5-HT2A receptors (setting [2]), `CC(O)(c1ccc(F)cc1F)C1CCN(CCc2ccc(F)cc2)CC1` (single isomer, unassigned) [listing 2 of 2 here] displayed an IC50 of 2200 nM.

In turn, `CC(O)(c1ccc(Cl)cc1)C1CCN(CCc2ccc(Cl)s2)CC1.Cl` (racemic) [1-{1-[2-(5-chlorothiophen-2-yl)ethyl]piperidin-4-yl}-1-(4-chlorophenyl)ethanol, hydrochloride] returned a melting point of 192 to 193 °C. At 5-HT2A receptors (setting [2]), this compound registered an IC50 of 2.6 nM. The “Inhibition [%], suppression” value in series [1] is 28%.

At 5-HT2A receptors (setting [2]), `Cc1cc(CCN2CCC(C(C)(O)c3ccc(F)cc3)CC2)sc1Cl` (racemic) yielded an IC50 of 4.2 nM.

`CC(O)(c1cccc2c1OCCO2)C1CCN(CCc2ccc(F)cc2)CC1.Cl` (racemic) [1-{1-[2-(4-fluorophenyl)ethyl]piperidin-4-yl}-1-(benzo[1,4]dioxan-5-yl)ethanol, hydrochloride] showed a melting point of 209 to 212 °C. At 5-HT2A receptors (setting [2]), this compound returned an IC50 of 3.7 nM. Moreover, the “Inhibition [%], suppression” value in series [1] turned out to be 9%.

Compound `CC(O)(c1ccc(C(F)(F)F)cc1)C1CCN(CCc2ccc(Cl)s2)CC1` (racemic) registered an IC50 at 5-HT2A receptors (setting [2]) of 8.6 nM.

`CC(O)(c1ccc(F)cc1)C1CCN(CCc2ccc(F)cc2F)CC1` (racemic) registered an IC50 on 5-HT2A receptors (setting [2]) of 0.83 nM.

`CC(O)(c1ccc(F)cc1)C1CCN(CCc2ccc(F)cc2)CC1.Cl` (single isomer, unassigned; (-)) [(−)-1-{1-[2-(4-fluorophenyl)ethyl]piperidin-4-yl}-1-(4-fluorophenyl)ethanol, hydrochloride] had a melting point of 185 to 186 °C. Moreover, the IC50 at 5-HT2A receptors (setting [2]) was 57 nM.

At 5-HT2A receptors (setting [2]), `Cc1nc(CCN2CCC(C(C)(O)c3ccc(F)cc3)CC2)cs1` (racemic) gave an IC50 of 66 nM.

At 5-HT2A receptors (setting [2]), `CC(O)(c1ccc(F)cc1)C1CCN(CCc2cc(Cl)sc2Cl)CC1` (racemic) yielded an IC50 of 2.2 nM.

In the case of `CC(O)(c1ccc(Cl)cc1)C1CCN(CCc2ccc(F)cc2)CC1.Cl` (racemic) [1-{1-[2-(4-fluorophenyl)ethyl]piperidin-4-yl}-1-(4-chlorophenyl)ethanol, hydrochloride], the melting point is 201 to 203 °C. Further, the IC50 at 5-HT2A receptors (setting [2]) came to 1.3 nM. Also, the “Inhibition [%], suppression” value in series [1] worked out at 96%.

`CC(O)(c1ccc(F)cc1)C1CCN(CCc2ccc(F)cc2)CC1` (racemic) [1-{1-[2-(4-fluorophenyl)ethyl]piperidin-4-yl}-1-(4-fluorophenyl)ethanol] had a melting point of 122 to 123 °C. Besides, the IC50 at 5-HT2A receptors (setting [2]) is 1.3 nM.

For the compound `CC(O)(c1ccc(F)cc1)C1CCN(CCc2cccs2)CC1.Cl` (racemic) [1-{1-[2-(thiophen-2-yl)ethyl]piperidin-4-yl}-1-(4-fluorophenyl)ethanol, hydrochloride], the melting point was in the range of 222 to 223 °C.

In the case of `CC(O)(c1ccc(F)cc1)C1CCN(CCc2ccc(Cl)s2)CC1` (racemic) [1-{1-[2-(5-chlorothiophen-2-yl)ethyl]piperidin-4-yl}-1-(4-fluorophenyl)ethanol], at 5-HT2A receptors (setting [2]), the IC50 was found to be 0.69 nM.

Consider `CC(O)(c1ccc(F)cc1)C1CCN(CCc2ccc(Cl)cc2Cl)CC1` (racemic), for which the IC50 on 5-HT2A receptors (setting [2]) amounted to 2 nM.

In the case of `COc1cccc(C(O)C2CCN(CCc3ccc(F)cc3)CC2)c1OC` (stereo not drawn) [Comparison from EP 0531410, (+)-α-(2,3-dimethoxyphenyl)-1-[2-(4-fluorophenyl)-ethyl]-4-piperidinemethanol, reference compound], the “Inhibition [%], suppression” value in series [1] was determined as 0%.

`Cc1ccccc1CCN1CCC(C(C)(O)c2ccc(C(F)(F)F)cc2)CC1` (racemic) came in with an IC50 at 5-HT2A receptors (setting [2]) of 1.4 nM.

In turn, `Cc1ccc(CCN2CCC(C(C)(O)c3ccc(F)cc3)CC2)s1` (racemic) showed an IC50 at 5-HT2A receptors (setting [2]) of 0.89 nM.

The compound `CC(O)(c1ccc(F)cc1)C1CCN(CCc2ccsc2)CC1` (single isomer, unassigned) [listing 2 of 2 here] yielded an IC50 at 5-HT2A receptors (setting [2]) of 250 nM.

Consider `CC(O)(c1ccc(F)cc1)C1CCN(CCc2ccc(F)cc2)CC1` (single isomer, unassigned; (+)) [(+)-1-{1-[2-(4-fluorophenyl)ethyl]piperidin-4-yl}-1-(4-fluorophenyl)ethanol, hydrochloride], for which the IC50 at 5-HT2A receptors (setting [2]) was found to be 0.35 nM.

Regarding `CC(O)(c1ccc(F)cc1)C1CCN(CCc2ccsc2)CC1` (racemic), the IC50 on 5-HT2A receptors (setting [2]) was 2.2 nM.
